Laboratory results as given in publication PMC2751792 (Journal of the American Chemical Society, 2009).
Square brackets hold non-standard residues; d marks the D form. Peptide text beside a SMILES is read from it. * marks the point of attachment. Asu = N[C@@H](CCCCCC(=O)O)C(=O)O; β3hL = CC(C)C[C@H](N)CC(=O)O; NHOH = ON*

How the values were obtained:
recombinant human HDAC5 = recombinant human HDAC5 (Homo sapiens, UniProt Q9UQL6); test: Recombinant HDAC isoform inhibition, HDAC5; assay type: biochemical
recombinant human HDAC10 = target: T1, recombinant human HDAC10 (Homo sapiens, UniProt Q969S8); test: Recombinant HDAC isoform inhibition, HDAC10; assay type: biochemical
T1 sequence (Q969S8 1-669): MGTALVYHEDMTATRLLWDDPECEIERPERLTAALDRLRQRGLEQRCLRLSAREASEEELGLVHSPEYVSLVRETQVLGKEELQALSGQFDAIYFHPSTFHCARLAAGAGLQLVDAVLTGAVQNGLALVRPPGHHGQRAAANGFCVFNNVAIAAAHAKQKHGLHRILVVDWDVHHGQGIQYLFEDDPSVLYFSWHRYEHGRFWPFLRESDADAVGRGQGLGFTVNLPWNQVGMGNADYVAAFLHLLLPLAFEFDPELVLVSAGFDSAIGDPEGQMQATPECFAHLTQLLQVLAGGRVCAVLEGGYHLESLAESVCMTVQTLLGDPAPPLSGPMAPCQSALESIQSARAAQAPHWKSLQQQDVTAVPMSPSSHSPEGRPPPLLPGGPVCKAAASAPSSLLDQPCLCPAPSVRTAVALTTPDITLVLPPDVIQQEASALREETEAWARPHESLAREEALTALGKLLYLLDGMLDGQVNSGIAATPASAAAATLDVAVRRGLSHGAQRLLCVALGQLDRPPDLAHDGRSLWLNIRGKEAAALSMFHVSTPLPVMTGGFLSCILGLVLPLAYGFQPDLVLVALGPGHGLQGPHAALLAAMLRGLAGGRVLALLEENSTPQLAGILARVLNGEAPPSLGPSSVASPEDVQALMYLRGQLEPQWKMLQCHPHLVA

recombinant human HDAC4 = recombinant human HDAC4 (Homo sapiens, UniProt P56524); test: Recombinant HDAC isoform inhibition, HDAC4; assay type: biochemical
recombinant human HDAC7 = target: T2, recombinant human HDAC7 (Homo sapiens, UniProt Q8WUI4); test: Recombinant HDAC isoform inhibition, HDAC7; assay type: biochemical
T2 sequence (Q8WUI4 1-952): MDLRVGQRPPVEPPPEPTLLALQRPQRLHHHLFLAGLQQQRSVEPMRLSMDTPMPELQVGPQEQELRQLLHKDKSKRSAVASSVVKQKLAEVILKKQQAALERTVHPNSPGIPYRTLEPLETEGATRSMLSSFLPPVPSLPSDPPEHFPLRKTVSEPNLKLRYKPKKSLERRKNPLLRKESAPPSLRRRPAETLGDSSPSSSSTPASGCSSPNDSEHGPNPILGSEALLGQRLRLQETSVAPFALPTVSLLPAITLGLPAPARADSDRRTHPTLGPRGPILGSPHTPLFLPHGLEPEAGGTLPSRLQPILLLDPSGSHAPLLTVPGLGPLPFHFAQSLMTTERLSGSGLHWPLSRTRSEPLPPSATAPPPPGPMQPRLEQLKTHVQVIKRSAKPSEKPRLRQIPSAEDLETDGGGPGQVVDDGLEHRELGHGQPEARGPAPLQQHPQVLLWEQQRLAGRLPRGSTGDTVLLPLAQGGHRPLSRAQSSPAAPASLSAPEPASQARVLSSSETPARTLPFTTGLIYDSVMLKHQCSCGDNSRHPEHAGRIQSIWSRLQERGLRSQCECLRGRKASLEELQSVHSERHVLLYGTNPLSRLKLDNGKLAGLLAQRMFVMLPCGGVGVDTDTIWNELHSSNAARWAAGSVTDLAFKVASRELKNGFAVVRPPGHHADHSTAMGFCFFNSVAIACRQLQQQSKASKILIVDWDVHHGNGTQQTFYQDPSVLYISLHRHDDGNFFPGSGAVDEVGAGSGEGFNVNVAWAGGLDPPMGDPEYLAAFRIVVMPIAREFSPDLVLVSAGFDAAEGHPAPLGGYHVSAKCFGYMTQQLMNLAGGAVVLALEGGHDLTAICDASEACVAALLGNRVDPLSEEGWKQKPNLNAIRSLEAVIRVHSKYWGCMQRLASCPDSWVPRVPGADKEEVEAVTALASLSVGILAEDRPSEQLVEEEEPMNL

recombinant human HDAC9 = recombinant human HDAC9 (Homo sapiens, UniProt Q9UKV0); test: Recombinant HDAC isoform inhibition, HDAC9; assay type: biochemical
[1] = tested on: HDAC activity in HeLa cell nuclear extract; test: Inhibition of HDAC activity in HeLa cell nuclear extract; assay type: biochemical, human; details: for HDAC inhibitory activity in HeLa cell nuclear extract, result in words: numbers only in Figures 2-4 (not readable); for IC50: read-out: HDAC inhibition, IC50, HeLa, at least in duplicate
recombinant human HDAC6 = target: T3, recombinant human HDAC6 (Homo sapiens, UniProt Q9UBN7); test: Recombinant HDAC isoform inhibition, HDAC6; assay type: biochemical
T3 sequence (Q9UBN7 1-1215): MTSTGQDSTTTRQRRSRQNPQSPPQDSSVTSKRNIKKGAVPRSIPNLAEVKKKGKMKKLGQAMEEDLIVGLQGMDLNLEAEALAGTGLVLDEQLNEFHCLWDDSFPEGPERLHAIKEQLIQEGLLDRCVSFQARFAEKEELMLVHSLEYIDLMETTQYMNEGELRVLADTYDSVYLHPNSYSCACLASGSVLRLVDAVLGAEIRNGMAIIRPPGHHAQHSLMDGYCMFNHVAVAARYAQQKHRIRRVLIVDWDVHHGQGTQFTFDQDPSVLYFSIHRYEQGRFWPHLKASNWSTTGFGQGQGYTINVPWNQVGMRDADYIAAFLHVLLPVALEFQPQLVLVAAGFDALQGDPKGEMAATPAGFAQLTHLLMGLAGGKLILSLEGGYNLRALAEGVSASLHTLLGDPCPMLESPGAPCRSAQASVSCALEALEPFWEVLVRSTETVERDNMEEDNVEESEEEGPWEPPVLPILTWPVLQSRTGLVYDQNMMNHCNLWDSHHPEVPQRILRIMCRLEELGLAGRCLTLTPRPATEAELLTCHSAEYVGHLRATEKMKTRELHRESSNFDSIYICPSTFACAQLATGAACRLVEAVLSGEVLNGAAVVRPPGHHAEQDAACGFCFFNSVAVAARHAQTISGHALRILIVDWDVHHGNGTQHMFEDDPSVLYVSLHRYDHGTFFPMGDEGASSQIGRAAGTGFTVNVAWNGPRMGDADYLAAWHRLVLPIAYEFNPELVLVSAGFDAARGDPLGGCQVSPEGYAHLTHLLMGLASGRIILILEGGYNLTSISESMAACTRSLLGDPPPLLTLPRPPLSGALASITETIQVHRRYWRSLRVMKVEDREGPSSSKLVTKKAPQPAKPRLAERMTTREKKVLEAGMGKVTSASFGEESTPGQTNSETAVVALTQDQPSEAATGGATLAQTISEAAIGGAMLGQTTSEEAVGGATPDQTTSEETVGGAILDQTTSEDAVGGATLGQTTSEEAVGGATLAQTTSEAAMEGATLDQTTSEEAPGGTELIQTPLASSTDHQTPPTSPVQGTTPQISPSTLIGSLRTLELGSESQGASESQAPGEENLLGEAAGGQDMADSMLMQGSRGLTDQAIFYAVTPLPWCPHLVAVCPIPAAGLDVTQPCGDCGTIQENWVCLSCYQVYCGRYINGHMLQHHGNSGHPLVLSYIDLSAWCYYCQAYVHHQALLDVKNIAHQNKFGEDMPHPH

recombinant human HDAC3 = recombinant human HDAC3 (Homo sapiens, UniProt O15379); test: Recombinant HDAC isoform inhibition, HDAC3; assay type: biochemical
recombinant human HDAC1 = recombinant human HDAC1 (Homo sapiens, UniProt Q13547); test: Recombinant HDAC isoform inhibition, HDAC1; assay type: biochemical
recombinant human HDAC2 = recombinant human HDAC2 (Homo sapiens, UniProt Q92769); test: Recombinant HDAC isoform inhibition, HDAC2; assay type: biochemical
recombinant human HDAC2, sequence (Q92769 whole entry, canonical isoform): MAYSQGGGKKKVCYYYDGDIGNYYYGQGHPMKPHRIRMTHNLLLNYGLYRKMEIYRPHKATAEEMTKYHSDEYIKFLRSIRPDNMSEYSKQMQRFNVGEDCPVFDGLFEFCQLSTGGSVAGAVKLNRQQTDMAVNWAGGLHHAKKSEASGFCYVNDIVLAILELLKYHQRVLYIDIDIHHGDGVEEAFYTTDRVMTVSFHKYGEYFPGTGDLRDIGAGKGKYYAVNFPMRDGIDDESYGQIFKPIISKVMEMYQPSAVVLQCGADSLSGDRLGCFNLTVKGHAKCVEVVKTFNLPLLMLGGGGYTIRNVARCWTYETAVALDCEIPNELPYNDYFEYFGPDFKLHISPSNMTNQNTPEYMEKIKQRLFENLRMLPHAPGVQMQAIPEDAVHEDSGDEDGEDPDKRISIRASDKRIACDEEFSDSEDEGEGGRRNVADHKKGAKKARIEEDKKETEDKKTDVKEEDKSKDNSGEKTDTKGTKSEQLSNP

recombinant human HDAC4, sequence (P56524 whole entry, canonical isoform): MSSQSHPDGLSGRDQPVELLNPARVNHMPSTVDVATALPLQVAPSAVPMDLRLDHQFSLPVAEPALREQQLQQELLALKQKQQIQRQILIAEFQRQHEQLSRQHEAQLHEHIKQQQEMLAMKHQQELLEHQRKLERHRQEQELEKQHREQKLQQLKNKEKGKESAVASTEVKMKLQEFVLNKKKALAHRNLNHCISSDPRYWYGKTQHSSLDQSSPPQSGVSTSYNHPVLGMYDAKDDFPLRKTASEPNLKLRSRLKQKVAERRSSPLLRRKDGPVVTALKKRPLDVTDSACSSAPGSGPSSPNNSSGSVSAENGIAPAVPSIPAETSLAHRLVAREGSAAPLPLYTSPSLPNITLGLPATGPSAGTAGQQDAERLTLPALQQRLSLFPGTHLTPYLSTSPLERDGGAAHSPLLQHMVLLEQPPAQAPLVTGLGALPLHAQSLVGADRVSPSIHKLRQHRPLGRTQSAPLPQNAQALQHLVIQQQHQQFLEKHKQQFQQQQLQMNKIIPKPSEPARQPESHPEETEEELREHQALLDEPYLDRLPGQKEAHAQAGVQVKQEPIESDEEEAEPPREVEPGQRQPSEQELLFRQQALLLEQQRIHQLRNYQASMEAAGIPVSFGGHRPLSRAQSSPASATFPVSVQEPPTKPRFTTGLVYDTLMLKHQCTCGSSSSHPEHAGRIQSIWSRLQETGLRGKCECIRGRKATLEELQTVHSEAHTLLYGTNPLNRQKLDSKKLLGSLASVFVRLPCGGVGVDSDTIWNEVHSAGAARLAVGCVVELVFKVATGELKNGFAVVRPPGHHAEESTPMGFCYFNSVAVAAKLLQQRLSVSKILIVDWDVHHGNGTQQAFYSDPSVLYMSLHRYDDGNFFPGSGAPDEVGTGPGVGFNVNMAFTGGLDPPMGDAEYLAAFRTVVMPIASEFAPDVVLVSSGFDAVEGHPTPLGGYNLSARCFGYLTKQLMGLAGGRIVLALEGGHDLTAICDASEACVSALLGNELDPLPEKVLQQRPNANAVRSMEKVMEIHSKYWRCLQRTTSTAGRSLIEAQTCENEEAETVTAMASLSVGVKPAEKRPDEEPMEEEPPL
recombinant human HDAC9, sequence (Q9UKV0 whole entry, canonical isoform): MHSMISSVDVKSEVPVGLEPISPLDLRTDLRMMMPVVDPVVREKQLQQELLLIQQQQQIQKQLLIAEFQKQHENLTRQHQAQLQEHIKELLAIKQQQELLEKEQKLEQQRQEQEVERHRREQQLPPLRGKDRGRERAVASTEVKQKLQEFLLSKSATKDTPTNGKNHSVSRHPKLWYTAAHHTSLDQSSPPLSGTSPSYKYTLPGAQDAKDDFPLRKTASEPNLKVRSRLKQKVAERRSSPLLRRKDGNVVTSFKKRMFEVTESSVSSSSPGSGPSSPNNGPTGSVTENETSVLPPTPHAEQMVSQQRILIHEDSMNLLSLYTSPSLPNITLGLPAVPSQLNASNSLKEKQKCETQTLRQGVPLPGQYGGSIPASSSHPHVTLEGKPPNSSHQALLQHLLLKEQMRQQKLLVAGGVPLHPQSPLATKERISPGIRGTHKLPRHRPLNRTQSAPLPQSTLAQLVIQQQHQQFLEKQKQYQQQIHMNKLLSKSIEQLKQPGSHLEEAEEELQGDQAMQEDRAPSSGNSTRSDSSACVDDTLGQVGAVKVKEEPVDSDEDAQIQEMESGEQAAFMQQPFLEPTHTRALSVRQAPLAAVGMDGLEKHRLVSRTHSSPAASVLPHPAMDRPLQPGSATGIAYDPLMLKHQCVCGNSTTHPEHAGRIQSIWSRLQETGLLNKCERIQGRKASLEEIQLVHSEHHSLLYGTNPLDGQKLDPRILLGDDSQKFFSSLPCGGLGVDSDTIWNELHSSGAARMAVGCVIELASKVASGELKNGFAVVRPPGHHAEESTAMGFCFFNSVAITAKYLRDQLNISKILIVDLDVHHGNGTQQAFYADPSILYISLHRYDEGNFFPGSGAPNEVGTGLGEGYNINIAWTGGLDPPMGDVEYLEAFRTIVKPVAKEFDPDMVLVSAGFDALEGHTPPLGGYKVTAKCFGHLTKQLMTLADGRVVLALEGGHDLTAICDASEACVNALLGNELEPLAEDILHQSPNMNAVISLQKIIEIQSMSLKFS
recombinant human HDAC5, sequence (Q9UQL6 whole entry, canonical isoform): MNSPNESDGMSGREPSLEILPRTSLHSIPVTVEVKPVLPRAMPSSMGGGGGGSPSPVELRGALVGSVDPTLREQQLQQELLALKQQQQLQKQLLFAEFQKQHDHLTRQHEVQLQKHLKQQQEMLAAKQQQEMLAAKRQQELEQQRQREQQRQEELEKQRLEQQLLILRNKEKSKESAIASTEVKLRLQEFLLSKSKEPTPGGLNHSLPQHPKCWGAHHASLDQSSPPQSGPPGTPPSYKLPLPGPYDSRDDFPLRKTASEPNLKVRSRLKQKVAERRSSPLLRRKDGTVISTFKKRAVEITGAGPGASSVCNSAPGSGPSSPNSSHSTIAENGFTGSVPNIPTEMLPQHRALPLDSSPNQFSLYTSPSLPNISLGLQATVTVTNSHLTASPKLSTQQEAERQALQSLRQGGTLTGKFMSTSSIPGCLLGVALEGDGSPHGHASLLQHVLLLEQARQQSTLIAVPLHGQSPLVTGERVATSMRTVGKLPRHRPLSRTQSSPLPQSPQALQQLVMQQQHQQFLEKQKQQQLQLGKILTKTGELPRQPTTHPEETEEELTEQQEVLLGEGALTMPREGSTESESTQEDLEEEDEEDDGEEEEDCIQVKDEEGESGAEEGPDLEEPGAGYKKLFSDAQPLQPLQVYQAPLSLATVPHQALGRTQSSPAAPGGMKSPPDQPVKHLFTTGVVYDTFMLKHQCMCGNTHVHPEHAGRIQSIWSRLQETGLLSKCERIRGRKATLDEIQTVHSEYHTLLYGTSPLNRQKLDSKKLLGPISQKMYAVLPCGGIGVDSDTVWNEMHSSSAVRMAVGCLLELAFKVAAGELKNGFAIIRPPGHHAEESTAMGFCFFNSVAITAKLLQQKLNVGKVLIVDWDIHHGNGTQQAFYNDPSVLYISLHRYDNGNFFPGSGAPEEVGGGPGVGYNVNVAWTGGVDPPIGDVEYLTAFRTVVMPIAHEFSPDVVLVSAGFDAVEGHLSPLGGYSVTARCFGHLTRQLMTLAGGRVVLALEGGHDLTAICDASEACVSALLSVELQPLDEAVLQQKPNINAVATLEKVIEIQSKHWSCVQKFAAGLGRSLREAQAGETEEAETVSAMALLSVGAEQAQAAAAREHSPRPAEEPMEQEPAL
recombinant human HDAC1, sequence (Q13547 whole entry, canonical isoform): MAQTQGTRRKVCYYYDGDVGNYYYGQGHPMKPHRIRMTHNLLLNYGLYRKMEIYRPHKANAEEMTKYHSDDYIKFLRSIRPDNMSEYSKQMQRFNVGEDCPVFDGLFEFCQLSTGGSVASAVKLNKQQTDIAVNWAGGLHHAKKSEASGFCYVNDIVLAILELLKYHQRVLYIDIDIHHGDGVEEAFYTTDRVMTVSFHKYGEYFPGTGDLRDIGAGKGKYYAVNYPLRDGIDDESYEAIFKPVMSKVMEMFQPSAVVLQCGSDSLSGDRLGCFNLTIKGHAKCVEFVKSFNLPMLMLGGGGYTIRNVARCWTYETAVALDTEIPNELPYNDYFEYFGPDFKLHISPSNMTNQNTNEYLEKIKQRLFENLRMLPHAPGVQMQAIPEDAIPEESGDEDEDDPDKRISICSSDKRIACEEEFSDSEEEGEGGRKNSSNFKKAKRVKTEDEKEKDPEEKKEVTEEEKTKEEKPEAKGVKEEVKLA
recombinant human HDAC3, sequence (O15379 whole entry, canonical isoform): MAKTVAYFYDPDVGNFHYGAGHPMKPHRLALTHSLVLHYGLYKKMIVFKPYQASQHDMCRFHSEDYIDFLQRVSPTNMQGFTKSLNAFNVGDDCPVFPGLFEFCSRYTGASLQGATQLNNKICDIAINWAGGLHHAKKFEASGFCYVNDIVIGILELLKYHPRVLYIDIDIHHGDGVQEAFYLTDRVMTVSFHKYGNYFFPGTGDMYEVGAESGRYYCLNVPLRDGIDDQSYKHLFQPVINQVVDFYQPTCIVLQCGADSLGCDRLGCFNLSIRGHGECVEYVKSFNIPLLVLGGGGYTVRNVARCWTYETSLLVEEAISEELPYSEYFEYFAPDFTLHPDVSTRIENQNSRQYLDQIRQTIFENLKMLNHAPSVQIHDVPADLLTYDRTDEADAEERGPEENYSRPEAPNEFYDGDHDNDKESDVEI
recombinant human HDAC3, sequence (Q9Y618 395-489 partner limits assumed): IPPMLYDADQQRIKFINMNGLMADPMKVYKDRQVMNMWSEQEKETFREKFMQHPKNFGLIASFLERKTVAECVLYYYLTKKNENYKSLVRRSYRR

| IC50 (recombinant human HDAC5) [µM] | IC50 (recombinant human HDAC10) [µM] | IC50 (recombinant human HDAC4) [µM] | IC50 (recombinant human HDAC7) [µM] | IC50 (recombinant human HDAC9) [µM] | IC50 (recombinant human HDAC6) [µM] | IC50 [1] [µM] | IC50 (recombinant human HDAC3) [µM] | IC50 (recombinant human HDAC1) [µM] | IC50 (recombinant human HDAC2) [µM] | SMILES | HDAC inhibitory activity in HeLa cell nuclear extract, result in words [1] | Increase of potency relative to the parent ethylketones 3 and 4 [1] |
| --- | --- | --- | --- | --- | --- | --- | --- | --- | --- | --- | --- | --- |
| 0.0025 | 0.0002 | > 10 | > 10 | 0.0006 | – | – | – | – | – | CC(C)C[C@H]1CC(=O)N[C@@H](C)C(=O)N[C@@H](CCCCCC(=O)NO)C(=O)N[C@@H](Cc2c[nH]c3ccccc23)C(=O)N1 [3a] (cyclo([Asu](NHOH)W[β3hL]A)) | – | – |
| 0.7 | 0.28 | > 10 | > 10 | 0.55 | – | – | – | – | – | CC(C)C[C@H]1CC(=O)N[C@@H](C)C(=O)N[C@@H](CCCCCC(=O)O)C(=O)N[C@@H](Cc2c[nH]c3ccccc23)C(=O)N1 [3b] (cyclo([Asu]W[β3hL]A)) | significantly decreased potency | – |
| 0.06 | 0.028 | > 10 | > 10 | 0.025 | > 10 | – | – | – | – | CCC(=O)CCCCC[C@@H]1NC(=O)[C@H](C)N(C)C(=O)C[C@H](CC(C)C)NC(=O)[C@H](Cc2c[nH]c3ccccc23)NC1=O [3h] | modest loss of potency | – |
| – | – | > 10 | > 10 | – | 0.035 | < 0.001 | 0.035 | 0.0006 | – | CC(C)C[C@H]1CC(=O)N2CCC[C@H]2C(=O)N[C@@H](CCCCCC(=O)NO)C(=O)N[C@@H](Cc2c[nH]c3ccccc23)C(=O)N1 [4a] (cyclo([Asu](NHOH)W[β3hL]P)) | – | at least 10 fold |
| 0.07 | 0.02 | > 10 | > 10 | 0.03 | – | 0.019 | – | 0.035 | 0.03 | CCC(=O)CCCCC[C@@H]1NC(=O)[C@H](C)NC(=O)C[C@H](CC(C)C)NC(=O)[C@H](Cc2c[nH]c3ccccc23)NC1=O [compound 3] | – | – |
| 0.05 | – | > 10 | > 10 | 0.022 | – | 0.009 | – | – | – | CCC(=O)CCCCC[C@@H]1NC(=O)[C@@H]2CCCN2C(=O)C[C@H](CC(C)C)NC(=O)[C@H](Cc2c[nH]c3ccccc23)NC1=O [compound 4] | low nanomolar IC50 values comparable to that of apicidin | – |
| – | – | – | – | – | – | – | – | – | – | CCC(=O)CCCCC[C@@H]1NC(=O)C[C@H](C)NC(=O)C[C@H](CC(C)C)NC(=O)[C@H](Cc2c[nH]c3ccccc23)NC1=O [compound 5] | high nanomolar activity | – |
